# Laboratory results as given in the supplement of paper PMC10307832.
# Experiments:
# Test in all cases: relative viability (nuclei count vs DMSO), 5 days (fraction); higher = more cells survive
# IPA-3 + Linsitinib = compound: C1=CC=C2C(=C1)C=CC(=C2SSC3=C(C=CC4=CC=CC=C43)O)O [IPA-3] + C[C@]1(O)C[C@@H](c2nc(-c3ccc4ccc(-c5ccccc5)nc4c3)c3c(N)nccn32)C1 [Linsitinib] (partner 1 µM)
# Procedure, shortened: (§1)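 Lung cancer cell lines in 1536-well plates got either a single drug or a fixed anchor-drug dose together with five library-drug doses (not always all listed) in √10 steps, by pin tool, on the day after seeding. Nuclei were counted after 5 days, and relative viability is the treated-to-vehicle ratio of nuclei counts. Values are medians of duplicate plates.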
# Doramapimod + Foretinib = compound: Cc1ccc(-n2nc(C(C)(C)C)cc2NC(=O)Nc2ccc(OCCN3CCOCC3)c3ccccc23)cc1 [Doramapimod] + COc1cc2c(Oc3ccc(NC(=O)C4(C(=O)Nc5ccc(F)cc5)CC4)cc3F)ccnc2cc1OCCCN1CCOCC1 [Foretinib] (partner 0.25 µM)
# Procedure, shortened: as §1
# Doramapimod + Decitabine = compound: Cc1ccc(-n2nc(C(C)(C)C)cc2NC(=O)Nc2ccc(OCCN3CCOCC3)c3ccccc23)cc1 [Doramapimod] + Nc1ncn([C@H]2C[C@H](O)[C@@H](CO)O2)c(=O)n1 [Decitabine] (partner 2 µM)
# Procedure, shortened: as §1
# RAF265 + Alpelisib = compound: Cn1c(Nc2ccc(C(F)(F)F)cc2)nc2cc(Oc3ccnc(-c4ncc(C(F)(F)F)[nH]4)c3)ccc21 [RAF265] + Cc1nc(NC(=O)N2CCC[C@H]2C(N)=O)sc1-c1ccnc(C(C)(C)C(F)(F)F)c1 [Alpelisib] (partner 2 µM)
# Procedure, shortened: as §1
Cell Line,relative viability (IPA-3 + Linsitinib; first compound 0.2 µM),relative viability (IPA-3 + Linsitinib; first compound 0.6325 µM),relative viability (IPA-3 + Linsitinib; first compound 2 µM),relative viability (IPA-3 + Linsitinib; first compound 6.325 µM),relative viability (IPA-3 + Linsitinib; first compound 20 µM),relative viability (Doramapimod + Foretinib; first compound 0.02 µM),relative viability (Doramapimod + Foretinib; first compound 0.06325 µM),relative viability (Doramapimod + Foretinib; first compound 0.2 µM),relative viability (Doramapimod + Foretinib; first compound 0.6325 µM),relative viability (Doramapimod + Foretinib; first compound 2 µM),relative viability (Doramapimod + Decitabine; first compound 0.02 µM),relative viability (Doramapimod + Decitabine; first compound 0.06325 µM),relative viability (Doramapimod + Decitabine; first compound 0.2 µM),relative viability (Doramapimod + Decitabine; first compound 0.6325 µM),relative viability (Doramapimod + Decitabine; first compound 2 µM),relative viability (RAF265 + Alpelisib; first compound 0.01 µM),relative viability (RAF265 + Alpelisib; first compound 0.03162 µM),relative viability (RAF265 + Alpelisib; first compound 0.1 µM),relative viability (RAF265 + Alpelisib; first compound 0.3162 µM),relative viability (RAF265 + Alpelisib; first compound 1 µM)
NCI-H727,0.265,0.186,0.271,0.34,0.226,0.665,0.857,0.857,1.05,0.801,0.855,0.852,0.999,0.736,0.767,0.662,0.644,0.594,0.366,0.308
HARA,1.08,0.912,0.935,0.916,1.02,0.88,0.841,0.767,,0.746,0.52,0.463,0.49,0.574,0.42,0.762,0.708,0.736,0.477,0.287
NCI-H2228,0.706,0.857,0.642,0.715,0.887,0.723,0.87,0.825,0.764,0.723,,,,,,0.791,0.718,0.436,0.299,0.29
LCLC-97TM1,0.208,0.215,0.181,0.202,0.215,0.842,1.02,0.895,0.94,0.819,0.197,0.208,0.242,0.236,0.235,0.274,0.194,0.2,0.144,0.125
CAL-12T,0.93,0.715,0.914,0.79,0.935,1.11,1.15,1.03,1.1,0.983,,,,,,1.26,1.04,0.944,0.575,0.354
NCI-H1648,,,,,,,,,,,0.465,0.544,0.452,0.402,0.389,,,,,
NCI-H522,,,,,,,,,,,0.751,0.7,0.626,0.683,0.577,,,,,
IA-LM,0.922,0.526,0.639,0.505,0.404,0.933,1.04,1.11,1.17,0.729,,,,,,0.774,,0.587,0.752,0.44
NCI-H1792,0.626,0.449,0.693,0.518,0.666,,,,,,0.462,0.532,0.505,0.571,0.47,0.668,0.663,0.668,0.518,0.168
EBC-1,1.12,0.729,0.911,0.841,0.871,0.117,0.102,0.0979,0.0935,0.1,,,,,,0.907,0.794,0.495,0.403,0.541
NCI-H1650,,,,,,1.06,1.26,1.36,1.41,1.21,0.412,0.409,0.515,0.409,0.283,,,,,
NCI-H1563,1.31,1.24,1.32,1.34,1.3,0.847,1,0.962,0.966,1.08,,,,,,0.977,0.999,0.973,0.898,0.985
SW 900,,,,,,0.557,0.933,0.877,1.11,0.892,0.355,0.439,0.36,0.405,0.437,,,,,
NCI-H1299,1.16,0.99,0.942,0.946,0.999,1.07,1.09,1.15,1.04,1.01,,,,,,0.981,1.06,0.966,0.589,0.616
NCI-H1623,,,,,,0.95,0.791,0.86,0.743,0.746,,,,,,,,,,
NCI-H1703,1.1,0.39,0.974,0.787,1.05,0.297,0.316,0.4,0.336,0.342,,,,,,0.213,0.298,0.251,0.274,0.206
NCI-H2170,,,,,,0.996,0.985,1,1.05,1.01,0.472,0.459,0.483,0.518,0.469,0.773,0.643,0.671,0.524,0.641
HCC-44,0.772,0.588,0.708,0.632,0.686,,,,,,0.958,0.984,1.03,0.945,0.978,0.743,0.699,0.882,0.75,0.695
NCI-H2342,,,,,,0.91,1.03,0.975,1.29,1.13,0.653,0.807,0.686,0.673,0.74,,,,,
Calu-6,1.14,0.937,0.878,0.952,0.958,0.903,0.914,0.941,0.942,0.919,,,,,,0.958,0.771,0.43,0.302,0.274
ChaGo-K-1,,,,,,0.922,0.907,0.892,0.949,0.831,0.555,0.54,0.541,0.49,0.503,,,,,
